Reference: ChEMBL document CHEMBL1147073, “Signal peptide peptidase and gamma-secretase share equivalent inhibitor binding pharmacology” (J Biol Chem, 2007)
Active and inactive are the calls of the source. No cut-off for these calls is given here.

Tests used:
Type in all cases: cell-based
[1] = target: Gamma-secretase; test: Displacement of [3H]L685458 from gamma-secretase in human THP1 cells; conditions: thp-1
[2] = Displacement of [3H]L685458 from human SPP expressed in HEK293 cells
[3] = Inhibition of SPP expressed in HEK293 cells in presence of Prl-PP peptide after 30 mins
[4] = target: Gamma-secretase; test: Displacement of [3H]IN973 from gamma-secretase in human THP1 cells; conditions: thp-1
[5] = tested on: HEK293; test: Inhibition of SPP expressed in HEK293 cells at 10 uM in presence of Prl-PP peptide after 30 mins

CC(C)C[C@H](NC(=O)OCc1ccccc1)C(=O)N[C@@H](CC(C)C)C(=O)NCC(=O)CNC(=O)[C@H](CC(C)C)NC(=O)[C@H](CC(C)C)NC(=O)OCc1ccccc1 showed an IC50 [1] of 8.7 nM, an IC50 [2] of 5.3 nM and an IC50 [3] of 2000 nM. The IC50 [4] was 2060 nM.

In the case of CSc1ccc(/C=C2/C(C)=C(CC(=O)O)c3cc(F)ccc32)cc1 [SULINDAC SULFIDE], the IC50 [1] is reported as 57100 nM, the IC50 [2] is reported as 45200 nM and the IC50 [4] is reported as 332000 nM.

For C[C@H](NC(=O)[C@@H](O)c1cc(F)cc(F)c1)C(=O)N[C@@H]1C(=O)N(C)N=Cc2ccccc21, the IC50 [1] was 510 nM, the Activity [5] was “inactive” and the IC50 [4] was 1.2 nM.

For CCC[C@H](C(N)=O)[C@@H](CC(C)C)C(=O)N[C@H]1N=C(c2ccccc2)c2ccccc2N(C)C1=O, the Activity [5] was “inactive” and the IC50 [2] was 560 nM.

In the case of C[C@H](NC(=O)Cc1cc(F)cc(F)c1)C(=O)N[C@H](C(=O)OC(C)(C)C)c1ccccc1, the IC50 [1] is reported as > 100000 nM, the Activity [5] is reported as “inactive” and the IC50 [2] is reported as 34200 nM. For the same molecule, the IC50 [4] was 6.3 nM.

In the case of C[C@H](c1ccc(F)cc1CCCC(=O)O)N(c1cc(F)ccc1F)S(=O)(=O)c1ccc(Cl)cc1, the IC50 [1] is reported as 25600 nM, the Activity [5] is reported as “inactive” and the IC50 [2] is reported as 28700 nM. It also gave an IC50 [4] of 12 nM.

With CC(C)C[C@H](NC(=O)[C@H](Cc1ccccc1)C[C@@H](O)[C@H](Cc1ccccc1)NC(=O)OC(C)(C)C)C(=O)N[C@@H](Cc1ccccc1)C(N)=O the IC50 [1] was 4.3 nM, the IC50 [2] was 10 nM and the IC50 [3] was 10000 nM. For the same molecule, the IC50 [4] was 72 nM.
